# Measured values from article PMC6540907, “The nuclear export inhibitor aminoratjadone is a potent effector in extracellular-targeted drug conjugates” (Chemical Science, 2019).
# Like-named read-outs stand apart in the source and are kept apart here. Starred links: 1 amine or outer side, 2 acyl side, 3 side chain; linkers in the order of their positions; H or OH if unused. Non-standard residues stand in square brackets, D forms with d. Residues, ends and D or L forms follow the SMILES beside them. Groups on a side chain read outwards from the residue. *: point of attachment. X2 = C/C=C/[C@@H]1O[C@H]([C@@H](/C=C/C=C(\C)C[C@@H](C)/C=C(C)\C=C\[C@H]2CC=CC(=O)O2)N*)C[C@@H](O)[C@@H]1C; X1 = O=C([C@@H](CCCn1nnc2c1CCC1C(CC2)C1COC(=O)[*:3])N[*:1])[*:2]; PABC = O=C(OCc1ccc(N[*:1])cc1)[*:2]; Cit = NC(=O)NCCC[C@H](N)C(=O)O; pGlu = O=C1CC[C@@H](C(=O)O)N1; azaGly = NNC(=O)O
# Columns and labels:
# Assay type in all cases: cell-based, human
# A-549 = assay: cells
# Protocol: (§1) Biological evaluation of the compounds […]
# (§2) serial dilutions of the test compound were given to 120 µL of suspended cells (50.000/mL) in wells of 96-well plates. After 5 days of incubation growth inhibition (IC50) was determined using an MTT assay.9
# (§3) Table S1:Medium conditions for different cell types.
# (§4) Cell type Medium Additives
# (§5) L-929 (DSMZ ACC 2) DME medium (high glucose) (Gibco) 10% fetal calf serum (Gibco) SKOV-3 DSMZ ATCC HTB Mc Coys-Medium (Gibco) 10% fetal calf serum (Gibco) […]
# (§6) A549 (DSMZ ACC 107) DME medium (high glucose) (Gibco) 10% fetal calf serum (Gibco)
# SK-OV-3 = assay: cells
# Protocol: as §1, §2, §3, §4, §5, §6
# MCF-7 = assay: cells
# Protocol: as §1, §2, §3, §4, §5, §6
# KB-3.1 = assay: cells
# Protocol: as §1, §2, §3, §4, §5, §6
# KB-3.1 cancer cells = assay: Cell proliferation assay under folate free conditions (MTT); conditions: KB-3.1, folate receptor-positive, read-out: Antiproliferative activity IC50 of folate-ratjadone conjugates
# Protocol: Cell proliferation assay under folate free conditions
# KB 3.1 (DSMZ ACC 158) cells were cultivated at 37 °C and 10 % CO2 in RMPI-medium without folic acid (Gibco) with 10% fetal calf serum (Gibco). 120 µL of suspended cells (100.000/mL) were seeded in wells of 96-well plates and after 24 h at 37 °C and 10 % CO2 the medium was removed, the cells were washed with PBS and RPMI-medium without folic acid (Gibco) + 10% dialyzed fetal calf serum (Sigma) were added to the cells, before after additional 24 h at 37°C and 10 % CO2 60 µL of serial dilutions of the test compound were given to cells. After 1, 2 and 5 days of incubation growth inhibition (IC50) was determined using an […]
# [1] = A-549 human lung carcinoma, read-out: Antiproliferative activity IC50
# [2] = Homo sapiens, SK-OV-3, read-out: Antiproliferative activity IC50
# [3] = Homo sapiens, MCF7, read-out: Antiproliferative activity IC50, MCF-7 human breast carcinoma
# [4] = Homo sapiens, A549, read-out: Antiproliferative activity IC50, A-549 human lung carcinoma
# [5] = Homo sapiens, KB 3-1, read-out: Antiproliferative activity IC50, KB-3.1 human cervix carcinoma
smiles,measurement,setting,value
C/C=C/[C@@H]1O[C@H]([C@@H](/C=C/C=C(\C)C[C@@H](C)/C=C(C)\C=C\[C@H]2CC=CC(=O)O2)NC(=O)OCc2ccc(NC(=O)[C@H](CCCNC(N)=O)NC(=O)[C@@H](NC(=O)OCC3C4CCc5nnn(CCC[C@@H](NC(=O)[C@H](Cc6ccc(O)cc6)NC(=O)[C@H](CO)NC(=O)[C@H](Cc6c[nH]c7ccccc67)NC(=O)[C@H](Cc6c[nH]cn6)NC(=O)[C@@H]6CCC(=O)N6)C(=O)N[C@@H](CC(C)C)C(=O)N[C@@H](CCCNC(=N)N)C(=O)N6CCC[C@H]6C(=O)NCC(N)=O)c5CCC43)C(C)C)cc2)C[C@@H](O)[C@@H]1C (some centres unmarked),IC50,A-549; [1],0.023 µM
C/C=C/[C@@H]1O[C@H]([C@@H](/C=C/C=C(\C)C[C@@H](C)/C=C(C)\C=C\[C@H]2CC=CC(=O)O2)NC(=O)OCc2ccc(NC(=O)[C@H](CCCNC(N)=O)NC(=O)[C@@H](NC(=O)OCCc3cn(CCC[C@H](NC(=O)[C@H](Cc4ccc(O)cc4)NC(=O)[C@H](CO)NC(=O)[C@H](Cc4c[nH]c5ccccc45)NC(=O)[C@H](Cc4c[nH]cn4)NC(=O)[C@@H]4CCC(=O)N4)C(=O)N[C@@H](CC(C)C)C(=O)N[C@@H](CCCNC(=N)N)C(=O)N4CCC[C@H]4C(=O)NCC(N)=O)nn3)C(C)C)cc2)C[C@@H](O)[C@@H]1C,IC50,A-549; [1],1.2 µM
C/C=C/[C@@H]1O[C@H]([C@@H](/C=C/C=C(\C)C[C@@H](C)/C=C(C)\C=C\[C@H]2CC=CC(=O)O2)NC(=O)OCc2ccc(NC(=O)[C@H](CCCNC(N)=O)NC(=O)[C@@H](NC(=O)OCC3C4CCc5nnn(CCC[C@@H](NC(=O)[C@H](Cc6ccc(O)cc6)NC(=O)[C@H](CO)NC(=O)[C@H](Cc6c[nH]c7ccccc67)NC(=O)[C@H](Cc6c[nH]cn6)NC(=O)[C@@H]6CCC(=O)N6)C(=O)N[C@@H](CC(C)C)C(=O)N[C@@H](CCCNC(=N)N)C(=O)N6CCC[C@H]6C(=O)NNC(N)=O)c5CCC43)C(C)C)cc2)C[C@@H](O)[C@@H]1C (stereo partly drawn) ([pGlu]HWSY[X1]([Val-Cit-PABC-X2])LRP[azaGly]-NH2),IC50,A-549; [1],0.0128 µM
C#CCCOC(=O)N[C@@H](C(=O)NC(CCCNC(N)=O)C(=O)Nc1ccc(COC(=O)N[C@H](/C=C/C=C(\C)C[C@@H](C)/C=C(C)\C=C\[C@H]2CC=CC(=O)O2)[C@@H]2C[C@@H](O)[C@H](C)[C@H](/C=C/C)O2)cc1)C(C)C (some centres unmarked) [Compound 26],IC50,"SK-OV-3; Homo sapiens, SK-OV-3, SK-OV-3 human ovarian carcinoma, read-out: Antiproliferative activity IC50",0.0136 µM
same,IC50,"SK-OV-3; SK-OV-3 human ovarian carcinoma, read-out: Antiproliferative activity IC50",0.0136 µM
same,IC50,"MCF-7; Homo sapiens, MCF7, MCF-7 human breast carcinoma, read-out: Antiproliferative activity IC50",0.0125 µM
same,IC50,"MCF-7; MCF-7 human breast carcinoma, read-out: Antiproliferative activity IC50",0.0125 µM
same,IC50,A-549; [1],0.0251 µM
same,IC50,"A-549; Homo sapiens, A549, A-549 human lung carcinoma, read-out: Antiproliferative activity IC50",0.0251 µM
same,IC50,"KB-3.1; KB 3-1, KB-3.1 human cervix carcinoma, read-out: Antiproliferative activity IC50",0.0092 µM
"C#CCCC(=O)NCCSSCCC(=O)N[C@H](/C=C/C=C(\C)C[C@@H](C)/C=C(C)\C=C\[C@H]1CC=CC(=O)O1)[C@@H]1C[C@@H](O)[C@H](C)[C@H](/C=C/C)O1 [Compound 29, HCC(CH2)2(CO)-NH-(CH2)2SS(CH2)2(CO)-16R-Aminoratjadone]",IC50,SK-OV-3; [2],0.00109 µM
same,IC50,MCF-7; [3],0.00017 µM
same,IC50,A-549; [4],0.00086 µM
same,IC50,KB-3.1; [5],0.00186 µM
C#CCCOC(=O)NC1C[C@@H]([C@H](O)/C=C/C=C(\C)C[C@@H](C)/C=C(C)\C=C\[C@H]2CC=CC(=O)O2)O[C@@H](/C=C/C)[C@H]1C (some centres unmarked) [Compound 34],IC50,SK-OV-3; [2],0.00422 µM
same,IC50,MCF-7; [3],0.0031 µM
same,IC50,A-549; [4],0.00522 µM
same,IC50,KB-3.1; [5],0.00723 µM
CC(C)C[C@H](NC(=O)[C@@H](CCCN=[N+]=[N-])NC(=O)[C@H](Cc1ccc(O)cc1)NC(=O)[C@H](CO)NC(=O)[C@H](Cc1c[nH]c2ccccc12)NC(=O)[C@H](Cc1c[nH]cn1)NC(=O)[C@@H]1CCC(=O)N1)C(=O)N[C@@H](CCCNC(=N)N)C(=O)N1CCC[C@H]1C(=O)NCC(N)=O [D-Orn-N3-LHRH],IC50,SK-OV-3,0.19 µM
same,IC50,MCF-7,0.0474 µM
same,IC50,A-549,0.318 µM
same,IC50,KB-3.1,1.11 µM
C/C=C/[C@@H]1O[C@H]([C@@H](/C=C/C=C(\C)C[C@@H](C)/C=C(C)\C=C\[C@H]2CC=CC(=O)O2)NC(=O)OCc2ccc(NC(=O)[C@H](CCCNC(N)=O)NC(=O)[C@@H](NC(=O)OCC3C4CCc5nnn(-c6ccc(C(=O)NCCCC[C@H](NC(=O)CC[C@H](NC(=O)CC[C@H](NC(=O)c7ccc(NCc8cnc9nc(N)[nH]c(=O)c9n8)cc7)C(=O)O)C(=O)O)C(=O)OC)cc6)c5CCC43)C(C)C)cc2)C[C@@H](O)[C@@H]1C (stereo partly drawn) [FA-1-Val-Cit-pABA-16R-aminoratjadone],IC50,KB-3.1 cancer cells; listed as FA-1-Val-Cit-pABA-16R-Aminoratjadone,0.169 µM
same,IC50,KB-3.1 cancer cells,0.169 µM
C/C=C/[C@@H]1O[C@H]([C@@H](/C=C/C=C(\C)C[C@@H](C)/C=C(C)\C=C\[C@H]2CC=CC(=O)O2)NC(=O)OCCc2cn(-c3ccc(C(=O)NCCCC[C@H](NC(=O)CC[C@H](NC(=O)CC[C@H](NC(=O)c4ccc(NCc5cnc6nc(N)nc(O)c6n5)cc4)C(=O)O)C(=O)O)C(=O)O)cc3)nn2)C[C@@H](O)[C@@H]1C [FA-6-L-16R-aminoratjadone],IC50,KB-3.1 cancer cells; listed as FA-6-L-16R-Aminoratjadone,0.15 µM
same,IC50,KB-3.1 cancer cells,0.15 µM
C/C=C/[C@@H]1O[C@H]([C@@H](/C=C/C=C(\C)C[C@@H](C)/C=C(C)\C=C\[C@H]2CC=CC(=O)O2)NC(=O)OCc2ccc(NC(=O)[C@H](CCCNC(N)=O)NC(=O)[C@@H](NC(=O)OC[C@@H]3[C@@H]4CCc5nnn(-c6ccc(C(=O)NCCCC[C@H](NC(=O)CC[C@H](NC(=O)CC[C@H](NC(=O)c7ccc(NCc8cnc9nc(N)nc(O)c9n8)cc7)C(=O)O)C(=O)O)C(=O)O)cc6)c5CC[C@@H]43)C(C)C)cc2)C[C@@H](O)[C@@H]1C [FA-6-Val-Cit-pABA-16R-aminoratjadone],IC50,KB-3.1 cancer cells; listed as FA-6-Val-Cit-pABA-16R-Aminoratjadone,0.223 µM
same,IC50,KB-3.1 cancer cells,0.223 µM
C/C=C/[C@@H]1O[C@H]([C@@H](/C=C/C=C(\C)C[C@@H](C)/C=C(C)\C=C\[C@H]2CC=CC(=O)O2)NC(=O)OCCc2cn(CCC[C@H](NC(=O)CC[C@H](NC(=O)CC[C@H](NC(=O)c3ccc(NCc4cnc5nc(N)[nH]c(=O)c5n4)cc3)C(=O)O)C(=O)O)C(=O)O)nn2)C[C@@H](O)[C@@H]1C [FA-7-L-16R-aminoratjadone],IC50,KB-3.1 cancer cells; listed as FA-7-L-16R-Aminoratjadone,0.19 µM
same,IC50,KB-3.1 cancer cells,0.19 µM
C/C=C/[C@@H]1O[C@H]([C@@H](/C=C/C=C(\C)C[C@@H](C)/C=C(C)\C=C\[C@H]2CC=CC(=O)O2)NC(=O)OCc2ccc(NC(=O)[C@H](CCCNC(N)=O)NC(=O)[C@@H](NC(=O)OC[C@@H]3[C@@H]4CCc5nnn(CCC[C@H](NC(=O)CC[C@H](NC(=O)CC[C@H](NC(=O)c6ccc(NCc7cnc8nc(N)nc(O)c8n7)cc6)C(=O)O)C(=O)O)C(=O)O)c5CC[C@@H]43)C(C)C)cc2)C[C@@H](O)[C@@H]1C [FA-7-Val-Cit-pABA-16R-aminoratjadone],IC50,KB-3.1 cancer cells,0.0343 µM
C/C=C/[C@@H]1O[C@H]([C@@H](/C=C/C=C(\C)C[C@@H](C)/C=C(C)\C=C\[C@H]2CC=CC(=O)O2)NC(=O)OCCc2cn(-c3ccc(C(=O)NCCCC[C@H](NC(=O)CC[C@H](NC(=O)c4ccc(NCc5cnc6nc(N)[nH]c(=O)c6n5)cc4)C(=O)O)C(=O)N[C@@H](CCCCN)C(=O)O)cc3)nn2)C[C@@H](O)[C@@H]1C [FA-8-L-16R-aminoratjadone],IC50,KB-3.1 cancer cells; listed as FA-8-L-16R-Aminoratjadone,0.129 µM
same,IC50,KB-3.1 cancer cells,0.129 µM
C/C=C/[C@@H]1O[C@H]([C@@H](/C=C/C=C(\C)C[C@@H](C)/C=C(C)\C=C\[C@H]2CC=CC(=O)O2)NC(=O)OCc2ccc(NC(=O)[C@H](CCCNC(N)=O)NC(=O)[C@@H](NC(=O)OC[C@@H]3[C@@H]4CCc5nnn(-c6ccc(C(=O)NCCCC[C@H](NC(=O)CC[C@H](NC(=O)c7ccc(NCc8cnc9nc(N)nc(O)c9n8)cc7)C(=O)O)C(=O)N[C@H](CCCCN)C(=O)O)cc6)c5CC[C@@H]43)C(C)C)cc2)C[C@@H](O)[C@@H]1C [FA-8-Val-Cit-pABA-16R-aminoratjadone],IC50,KB-3.1 cancer cells,0.0399 µM
C/C=C/[C@@H]1O[C@H]([C@@H](/C=C/C=C(\C)C[C@@H](C)/C=C(C)\C=C\[C@H]2CC=CC(=O)O2)NC(=O)OCCc2cn(CCC[C@H](NC(=O)[C@H](Cc3ccc(O)cc3)NC(=O)[C@H](CO)NC(=O)[C@H](Cc3c[nH]c4ccccc34)NC(=O)[C@H](Cc3c[nH]cn3)NC(=O)[C@@H]3CCC(=O)N3)C(=O)N[C@@H](CC(C)C)C(=O)N[C@@H](CCCNC(=N)N)C(=O)N3CCC[C@H]3C(=O)NCC(N)=O)nn2)C[C@@H](O)[C@@H]1C [L-Orn-LHRH-16R-aminoratjadone],IC50,A-549; [1],1.6 µM
